This is an account of results in patent EP4772560A1, “POLYESTER RESIN COMPRISING REGENERATED BIS(2-HYDROXYETHYL)TEREPHTHALATE, AND ARTICLE COMPRISING POLYESTER RESIN” (SK Chemicals Co., Ltd., priority 2023, dated 2025).

This data set is described as follows: Thermal property drop index (TDI) calculated from HPLC peak area fractions of recycled BHET. It counts as physicochemical. As to conditions: thermal property drop index = [DEG-ester-1] + [DEG-ester-2] × 2 + exp[HA-ester], from HPLC peak area fractions (%). On the procedure: About 0.01 g of recycled bis(2-hydroxyethyl) terephthalate was diluted in about 20 ml of methanol, which was analyzed by high-performance liquid chromatography (HPLC) (model: Waters e2695, column: C18 (4.6 × 250 mm), 5 µm, UV detector: 242 nm, injection volume: 10 µl, eluent (gradient) A: H2O + H3PO4, B: acetonitrile) Thereafter, the peak area fractions (%) of the following components among the total peak area of HPLC were obtained. • MHET: monohydroxyethyl terephthalate • BHET: bis(2-hydroxyethyl) terephthalate, • DEG-ester-1: 2-hydroxyethyl[2-(2-hydroxyethoxy)ethyl] terephthalate • DEG-ester-2: bis[2-(2-hydroxyethoxy)ethyl]benzene-1,4-dicarboxylate • HA-ester: 2-hydroxyethyl(2-acetoxyethyl) terephthalate • Dimer: BHET dimer • Trimer: BHET trimer
Recycled bis(2-hydroxyethyl) terephthalate was subjected to HPLC analysis in the same manner as in section (1) above. The thermal property drop index (TDI) defined by the following equation was then calculated. TDI = [DEG−ester−1] + [DEG−ester−2] × 2 + exp^(∧) [HA−ester] [formula]
Here, DEG-ester-1 is the peak area fraction (%) of 2-hydroxyethyl[2-(2-hydroxyethoxy)ethyl] terephthalate, DEG-ester-2 is the peak area fraction (%) of bis[2-(2-hydroxyethoxy)ethyl]benzene-1,4-dicarboxylate, and HA-ester is the peak area fraction (%) of 2-hydroxyethyl(2-acetoxyethyl) terephthalate. It was calculated by taking only the numerical values excluding the units of these parameters.

For the molecule `O=C(OCCO)c1ccc(C(=O)OCCO)cc1` [r-BHET A1, bis(2-hydroxyethyl) terephthalate], the TDI (listed as A1) is 1.71.

In the case of `O=C(OCCO)c1ccc(C(=O)OCCO)cc1` [r-BHET A2, bis(2-hydroxyethyl) terephthalate], the TDI (listed as A2) is 1.59.

On to `O=C(OCCO)c1ccc(C(=O)OCCO)cc1` [r-BHET A3, bis(2-hydroxyethyl) terephthalate], for which the TDI (listed as A3) was 1.74.

Regarding `O=C(OCCO)c1ccc(C(=O)OCCO)cc1` [r-BHET A4, bis(2-hydroxyethyl) terephthalate], the TDI (listed as A4) was 1.86.

Turning to `O=C(OCCO)c1ccc(C(=O)OCCO)cc1` [r-BHET A5, bis(2-hydroxyethyl) terephthalate], the TDI (listed as A5) is 2.55.

In the case of `O=C(OCCO)c1ccc(C(=O)OCCO)cc1` [r-BHET A6, bis(2-hydroxyethyl) terephthalate], the TDI (listed as A6) is 1.86.

In the case of `O=C(OCCO)c1ccc(C(=O)OCCO)cc1` [r-BHET A7, bis(2-hydroxyethyl) terephthalate], the TDI (listed as A7) is 1.71.

As to `O=C(OCCO)c1ccc(C(=O)OCCO)cc1` [r-BHET B1, bis(2-hydroxyethyl) terephthalate, reference compound], for the setting “listed as B1”, the TDI is given as 9.23.

Consider `O=C(OCCO)c1ccc(C(=O)OCCO)cc1` [r-BHET B2, bis(2-hydroxyethyl) terephthalate, reference compound], for which the TDI (listed as B2) is reported as 6.87.
